Measurements: ChEMBL document CHEMBL1201862, “PubChem BioAssay data set” (2004)
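1) Cells in 96-well plates. 2) Compound, 48 h, 5 concentrations. 3) Linear interpolation between surrounding doses. 4) Unreached endpoint = highest concentration. GI50: concentration for 50% inhibition of growth.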 The source made the active and inactive calls. No stated cut-off is given here; in the data, active = GI50 up to about 1.1 µM and inactive = higher.

Columns and labels:
Test in all cases: inhibition of tumour cell growth, NCI panel, 48 h
M14 = system: M14
KM12 = system: KM12
SR = system: SR
OVCAR-8 = system: OVCAR-8
NCI/ADR-RES = system: NCI/ADR-RES
DU-145 = system: DU-145
786-0 = system: 786-0
CCRF-CEM = system: CCRF-CEM
ACHN = system: ACHN
BT-549 = system: BT-549
Malme-3M = system: Malme-3M
UO-31 = system: UO-31
SK-MEL-28 = system: SK-MEL-28
SF-539 = system: SF-539
OVCAR-4 = system: OVCAR-4
SK-MEL-2 = system: SK-MEL-2
HL-60 = system: HL-60
EKVX = system: EKVX
CAKI-1 = system: CAKI-1
NCI-H23 = system: NCI-H23

Measured: GI50

C[n+]1cn(-c2ccc([N+](=O)[O-])cn2)c2ccccc21
inactive: M14 > 100 µM | KM12 > 100 µM | SR > 100 µM | OVCAR-8 > 100 µM | NCI/ADR-RES > 100 µM | DU-145 > 100 µM | 786-0 > 100 µM | CCRF-CEM > 100 µM | ACHN > 100 µM | BT-549 > 100 µM | Malme-3M > 100 µM | UO-31 > 100 µM | SK-MEL-28 > 100 µM | SF-539 > 100 µM | OVCAR-4 > 100 µM | SK-MEL-2 > 100 µM | HL-60 > 100 µM | EKVX > 100 µM | CAKI-1 > 100 µM | NCI-H23 > 100 µM

Clc1cccc(N/N=N/c2ccc(-c3nc4ccccc4s3)cc2)c1
inactive: M14 34.8 µM | KM12 > 100 µM | SR 20.9 µM | OVCAR-8 22.4 µM | NCI/ADR-RES 27.9 µM | DU-145 > 100 µM | 786-0 22.2 µM | CCRF-CEM 21 µM | ACHN > 100 µM | BT-549 51.2 µM | Malme-3M 26.6 µM | UO-31 > 100 µM | SK-MEL-28 42.8 µM | SF-539 82.8 µM | OVCAR-4 46.9 µM | SK-MEL-2 21.2 µM | HL-60 6.34 µM | EKVX > 100 µM | CAKI-1 53.8 µM | NCI-H23 24.5 µM

COC(=O)C[C@H](COCc1ccccc1)NC(=O)C[C@H](COCc1ccccc1)NC(=O)C[C@H](COCc1ccccc1)NC(=O)OC(C)(C)C
inactive: M14 54.6 µM | KM12 > 100 µM | SR 35.3 µM | OVCAR-8 23.8 µM | NCI/ADR-RES > 100 µM | DU-145 23.3 µM | 786-0 18 µM | CCRF-CEM > 100 µM | ACHN 80.9 µM | BT-549 > 100 µM | Malme-3M > 100 µM | UO-31 > 100 µM | SK-MEL-28 73.1 µM | SF-539 95.3 µM | OVCAR-4 3.97 µM | SK-MEL-2 > 100 µM | HL-60 > 100 µM | EKVX 25.8 µM | CAKI-1 > 100 µM | NCI-H23 > 100 µM

Cc1cc(NS(=O)(=O)c2ccc(Nc3c4ccccc4nc4ccc(C(=O)Nc5ccc(S(N)(=O)=O)cc5)cc34)cc2)no1
inactive: M14 > 100 µM | KM12 69 µM | SR > 100 µM | OVCAR-8 > 100 µM | NCI/ADR-RES > 100 µM | DU-145 > 100 µM | 786-0 > 100 µM | CCRF-CEM > 100 µM | ACHN > 100 µM | BT-549 > 100 µM | Malme-3M > 100 µM | UO-31 > 100 µM | SK-MEL-28 > 100 µM | SF-539 > 100 µM | OVCAR-4 > 100 µM | SK-MEL-2 > 100 µM | HL-60 > 100 µM | EKVX > 100 µM | CAKI-1 > 100 µM | NCI-H23 > 100 µM

CC(=O)Nc1c(S(=O)(=O)c2ccccc2)c(C)c(C)n1CCN(C)C
inactive: M14 70.3 µM | KM12 > 100 µM | SR > 100 µM | OVCAR-8 > 100 µM | NCI/ADR-RES > 100 µM | DU-145 > 100 µM | 786-0 > 100 µM | CCRF-CEM > 100 µM | ACHN > 100 µM | BT-549 > 100 µM | Malme-3M > 100 µM | UO-31 > 100 µM | SK-MEL-28 > 100 µM | SF-539 > 100 µM | OVCAR-4 > 100 µM | SK-MEL-2 > 100 µM | HL-60 > 100 µM | EKVX > 100 µM | CAKI-1 > 100 µM | NCI-H23 > 100 µM

Cc1ccc(S(=O)(=O)NC(CO)C(=O)O)cc1 (stereo not given)
inactive: M14 > 100 µM | KM12 > 100 µM | SR > 100 µM | OVCAR-8 > 100 µM | NCI/ADR-RES > 100 µM | DU-145 > 100 µM | 786-0 > 100 µM | CCRF-CEM > 100 µM | ACHN > 100 µM | BT-549 > 100 µM | Malme-3M > 100 µM | UO-31 > 100 µM | SK-MEL-28 > 100 µM | SF-539 > 100 µM | OVCAR-4 > 100 µM | SK-MEL-2 > 100 µM | HL-60 > 100 µM | EKVX > 100 µM | CAKI-1 > 100 µM | NCI-H23 > 100 µM

Cc1cccc(N(CCC#N)S(=O)(=O)c2ccccc2)c1
inactive: M14 > 100 µM | KM12 > 100 µM | SR > 100 µM | OVCAR-8 > 100 µM | NCI/ADR-RES > 100 µM | DU-145 > 100 µM | 786-0 > 100 µM | CCRF-CEM > 100 µM | ACHN > 100 µM | BT-549 > 100 µM | Malme-3M > 100 µM | UO-31 97.7 µM | SK-MEL-28 > 100 µM | SF-539 > 100 µM | OVCAR-4 > 100 µM | SK-MEL-2 > 100 µM | HL-60 > 100 µM | EKVX > 100 µM | CAKI-1 > 100 µM | NCI-H23 > 100 µM
